The record followed here is paper PMC7052167, “TCR–pMHC bond conformation controls TCR ligand discrimination” (Cellular and Molecular Immunology, 2019).

Holding throughout (assay type): cell-based, mouse
The subject of assay [1] is TCR–CD3ζ complex of 5C.C7 T cells. In words: Transmembrane TCR–CD3ζ FRET2 (GFP/Alexa Fluor 568), intramolecular TCR–CD3ζ distance. Conditions: 10 μM PP2. The source says:
To determine the conformation of a single TCR–pMHC bond, a TCR and a pMHC were site-specifically labeled with the FRET acceptor Cy5 and the FRET donor Cy3, respectively.[8] The peptide within the MHC molecule was labeled with Cy3, and the TCR was labeled with the anti-TCR single-chain variable fragment (scFv) J1-Cy5 (Fig. 1a and Fig. S1a). The intermolecular distance between Cy3 and Cy5 provided a reasonable approximation of the conformation (or compactness) of the TCR–pMHC bond. The conformation of a single TCR–pMHC bond on the cell surface was measured by Cy3/Cy5 FRET (FRET1) (Fig. 1a) in real time by total internal reflection fluorescence (TIRF) microscopy (Fig. S1b). The Cy3/Cy5 inter-dye distance of a TCR–pMHC bond is denoted as the TCR–pMHC bond distance to describe the TCR–pMHC bond conformation in the following paragraphs. […] The real-time intramolecular distances of the TCR–CD3ζ complexes were measured by GFP/Alexa Fluor 568 FRET (FRET2) (Fig. 1a) using epifluorescence time-lapse microscopy (Fig. S1b).
It is not clear what induces the dissociation of CD3ζ from the membrane to initiate T-cell intracellular signaling. […] We tracked and measured the FRET efficiencies of each individual microcluster in real time. […]

Assay [2] relates to TCR microclusters of 5C.C7 T cells. Briefly: TCR microcluster formation at the T-cell synapse. Conditions: 10 μM PP2. An excerpt:
TCRs form microclusters upon antigen stimulation (Movie S4). To measure the conformational dynamics of single TCR–pMHC bonds without possible interference from TCR microclusters, we used latrunculin A (LA) to prevent the formation of TCR microclusters during smFRET measurements. […] We then performed smFRET in the absence of TCR microclusters.
To test whether TCR–CD3ζ conformational changes were dependent on TCR signaling, we used an Src kinase inhibitor PP2[27] to block TCR signaling. Consistent with the results of a previous study,[21] […] To reveal the role of TCR signaling in TCR–CD3ζ conformational changes, we plotted the time trajectories of the normalized intramolecular TCR–CD3ζ distances against the stimulation time in the absence and presence of PP2 (Fig. 4d). In the absence of PP2, the intracellular CD3ζ chain quickly separated from the TCR extracellular domain upon TCR engagement with the K5 pMHC and then reached a stable, fully extended TCR–CD3ζ conformation.
(§1) To measure the TCR–pMHC bond distance by smFRET in the absence of CD4 binding, T cells were incubated with 10 μg/mL anti-CD4 antibody (GK 1.5, Biolegend) and 0.027 µg/µL of Cy5-J1 scFV for 30 min at 4 °C. After three washes, the cells were added to a lipid bilayer containing Cy3-pMHCs, and smFRET assays were performed in the continuous presence of 10 μg/mL anti-CD4 antibody at 37 °C using TIRF microscopy. […]

In the next assay the test system is 5C.C7 T cell. In words: T-cell calcium signaling (fluorescence imaging). The following applies: 10 μM PP2; X-Rhod-5F indicator, 37 °C.
Excerpt: To understand how the TCR–pMHC bond conformation triggers T-cell signaling, we devised a fluorescence micropipette assay to measure real-time T-cell calcium signaling at the single-cell level. Fast single T-cell calcium flux was observed upon T cell/APC contact (bond formation). Consistently, the calcium signaling amplitude and speed were dependent on the peptide potency (Fig. 5e, f, Fig. S15, and Movie S7). To link the TCR conformational change to TCR signaling, we simultaneously plotted the association of the TCR–CD3ζ conformational change with the Ca^2+ signal against the stimulation time. […] Ca^2+ release in turn drives the dissociation of positively charged CD3ζ from the negatively charged phospholipids in the plasma membrane[32] to expose the CD3ζ ITAM domains for phosphorylation via a Ca^2+ signaling feedback loop (Fig. 5h).
as §1

Consider `CC(C)(C)n1nc(-c2ccc(Cl)cc2)c2c(N)ncnc21` [PP2], for which the “effect of PP2 on TCR–CD3ζ conformational change” value in assay [1] (K5 pMHC, 37 °C) is given as “completely abolished the TCR-CD3 conformational change”. For the same compound, in assay [1] (MCC and 102S pMHCs, Fig. S11), the “effect of PP2 on TCR–CD3ζ conformational change (MCC and 102S)” value was “this effect of TCR signaling was also found”. For the same compound, the “effect of PP2 on TCR microcluster formation” value in assay [2] is “TCRs could still form microclusters”. Besides, the “effect of PP2 on T-cell calcium signaling” value with 5C.C7 T cell was “completely abrogated T-cell calcium signaling”.
